The results in this text go back to patent US8076287B2, “Cyclic hexadepsipeptides, processes for their production and their use as pharmaceuticals” (priority 2006, dated 2011).

In brackets after ≈: the same amount, converted by molar mass. Read-outs that look alike come from different tables or passages of the source.

The test system of series [1] is C. diphtheriae HER1356. Nature of the series: MIC broth dilution, antibacterial activity. The format is cell-based. As to conditions: Corynebacterium diphtheriae; C. diphtheriae HER1356 (strain C7); MH medium.
For series [2], the system named is Enterococcus faecalis ATCC ™ 29212 (VSE). The series is described as follows: MIC broth dilution, antibacterial activity. The format is cell-based. As to conditions: ATCC29212, BHI+ medium. (In general: Broth dilution looks for growth in wells or tubes with falling amounts of substance.)
Series [3] has as its system Sheep red blood cells. The series is described as follows: In vitro toxicity: hemolytic activity. The format is cell-based. As to conditions: 2 hrs at 37° C., prepared in DMSO. As for the experimental part: In vitro toxicity: Sheep red blood cells were exposed to Compound 1 for 2 hrs at 37° C. at concentrations ranging from 2 to 64 μg/mL. Hemolytic activity was determined by monitoring the amount of hemoglobin released spectrophotometrically.

Series [4] relates to S. aureus MRS3 ATCC ™ 700699 (MRSA-hVISA). Nature of the series: MIC broth dilution, antibacterial activity. The format is cell-based. As to conditions: Staphylococcus aureus, MH medium, 35° C., 16 to 20 hours.
The subject of series [5] is C. difficile ATCC ™ 9689. Nature of the series: microbe, parasite or virus in culture. As to conditions: Clostridioides difficile, ATCC9689. The format is cell-based, Clostridium difficile.
The test system of series [6] is C. perfringens HER1390. Nature of the series: microbe, parasite or virus in culture. It counts as cell-based. As to conditions: Clostridium perfringens.
Series [7] concerns Candida albicans ATCC™10231. Nature of the series: Antifungal activity, NCCLS M27-A broth dilution. The format is cell-based. As to conditions: ATCC10231, after 48 hours, RPMI 1640. As for the experimental part:
Testing of antifungal activity was performed according to NCCLS method (NCCLS. Reference Method for Broth Dilution Antifungal Susceptibility Testing of Yeasts; Approved Standard. NCCLS document M27-A (ISBN 1-56238-328-0). NCCLS, 940 West Valley Road, Suite 1400, Wayne, Pa. 19087-1898 USA). Compound 1 was prepared as 100× stock solutions in DMSO, with concentrations ranging from 3.2 mg/mL to 0.003 mg/mL (a two-fold dilution series over 11 points). An aliquot of each 100× stock solution was diluted 50-fold in test medium described below to give a set of eleven (11) 2× solutions. 50 μL of each of the eleven 2× solutions was aliquoted into the corresponding well of a 12-well row, with the final well reserved for medium alone control. Inoculum density for the Candida albicans ATCC™10231 indicator strain was adjusted to OD600=0.1 in 5 mL 0.85% saline, then further diluted 1/1000 in RPMI 1640 medium. 50 μL of the final dilution (in test medium) of each indicator strain was added to each well of a 12-well row. This brings the final dilution of the test article or control compound in solution to 1×. The final inoculum was approximately 5×10^4 CFU/ml.

In series [8] the test system is M. Luteus ATCC ™ 9341. The series is described as follows: MIC broth dilution, antibacterial activity. It counts as cell-based. As to conditions: Micrococcus luteus, ATCC9341, MH medium.
Series [9] concerns HT-29 (colorectal carcinoma). The series is described as follows: In vitro cytotoxic activity (propidium iodide GI50). As to conditions: Homo sapiens, 96 hrs. It counts as cell-based.
Series [10] has as its system SF-268 (CNS). The series is described as above. It counts as cell-based. As to conditions: Homo sapiens, 96 hrs.
The test system of series [11] is S. epidermidis ATCC ™ 12228. Nature of the series: MIC broth dilution, antibacterial activity. As to conditions: Staphylococcus epidermidis, ATCC12228, MH medium, 35° C., 16 to 20 hours. The format is cell-based.
Series [12] deals with S. pneumoniae LSPQ 3412 (Penicillin sensitive). Nature of the series: MIC broth dilution, antibacterial activity. The format is cell-based. As to conditions: Streptococcus pneumoniae, MH + 2% lysed horse blood.
Series [13] deals with PC-3 (prostate adenocarcinoma). The series is described as follows: In vitro cytotoxic activity (propidium iodide GI50). The format is cell-based. As to conditions: 96 hrs.
For series [14], the system named is S. aureus ATCC ™ 6538P (MSSA). The series is described as follows: MIC broth dilution, antibacterial activity. It counts as cell-based. As to conditions: Staphylococcus aureus, MH medium, 35° C., 16 to 20 hours.
A short description of series [15]: In vivo acute toxicity (MTD). The arrangement: species or system CD-1 nu/nu mice. As to conditions: CD-1 nu/nu, mouse, saline with 10% EtOH and 7.5% polysorbate 80, read-out: maximum tolerated dose (MTD). Here is the method: In vivo toxicity: The acute toxicity in CD-1 nu/nu mice of Compound 1 was determined in a saline solution comprising 10% EtOH and 7.5% polysorbate 80. When given i.p., the maximum tolerated dose (MTD) was ≧5 mg/kg. The MTD was 2.5 mg/kg when Compound 1 was administered i.v.

In series [16] the test system is S. pneumoniae LSPQ 3349 (Penicillin resistant). Nature of the series: MIC broth dilution, antibacterial activity. It counts as cell-based. As to conditions: Streptococcus pneumoniae, MH + 2% lysed horse blood.
For series [17], the system named is Enterococcus faecalis ATCC ™ 51299 (VRE). The series is described as follows: MIC broth dilution, antibacterial activity. As to conditions: BHI+ medium. It counts as cell-based.
The test system of series [18] is B. subtilis ATCC ™ 23857. The series is described as follows: MIC broth dilution, antibacterial activity. It counts as cell-based. As to conditions: Bacillus subtilis, ATCC23857, BHI+ medium.
In series [19] the test system is human MX-1 breast carcinoma xenograft. Nature of the series: In vivo efficacy in human breast cancer xenograft model. Also noted: species or system Harlan female athymic nude mice. Here is the method: The antitumor activity of Compound 1 was tested in vivo in a human MX-1 breast carcinoma model in mice, formulated in 10% ethanol, 7.5% ethanolic polysorbate 80 (1 g/mL in ethanol), and 82.5% saline. Harlan female athymic nude mice (12 weeks of age on Day 1 (D1)) were used for this study. Human MX-1 carcinoma was maintained in athymic nude mice by serial engraftment. A tumor fragment (1 mm^3) was implanted subcutaneously into the right flank of each test mouse. Tumors were monitored twice weekly and then daily as their mean volume approached 80-120 mm^3.
On D1, animals were sorted into treatment groups 1 to 4 (groups 1 to 3: 9 mice; group 4:10 mice), with tumor sizes of 63-144 mm^3 and group mean tumor sizes of about 99 mm^3. Tumor volumes were calculated as (width^2×length) divided by 2. Tumor weight was estimated with the assumption that 1 mg is equivalent to 1 mm^3 of tumor volume.
Starting on Day 1, each group was treated with dosing volumes of 0.2 mL/20-g mouse in Groups 1 and 2, and 0.1 mL/20-g mouse for Groups 3 and 4, scaled to the body weight of each animal, and according to the following protocol:
Tumor measurements were taken twice weekly using calipers and were converted to tumor weight. Tumor weight was estimated with the assumption that 1 mg is equivalent to 1 mm^3 of tumor volume (tumor volume was determined as above). Body weights were also recorded daily for Day 1 to 5, and then twice weekly.
Each animal was euthanized when its neoplasm reached the predetermined endpoint size (1,500 mm^3). The “time to endpoint” (TTE) for each mouse was calculated by the following equation:
[formula] where “TTE” is expressed in days, “endpoint volume” is in mm^3, “b” is the intercept, and “m” is the slope of the line obtained by linear regression of a log-transformed tumor growth data set. The data set comprised the first observation that exceeded the study endpoint volume and the three consecutive observations that immediately preceded the attainment of the endpoint volume.
Treatment efficacy was determined from “tumor growth delay” (TGD), which is defined as the increase in “T” the median TTE for a treatment group compared to “C” the median for control group 1: TGD=T−C, expressed in days, or as a percentage of the median TTE of the control group (% TGD=(TGD/C)×100).
The “percentage of tumor growth inhibition” (TGI) is calculated as:
[formula] wherein MTVtreated and MTVvehicle are respectively the “median tumor volume” for the animals treated with Compound 1 and animals receiving the vehicle, on day 18 and day 0. Two-tailed statistical analyses were done using GraphPad Prism™ software.
The “MTV(n)” is defined as the median tumor volume on Day 53 in the number of animals remaining, n, whose tumors have not attained endpoint volume.
Background: A xenograft is tissue or cells of one species grown in another, often human tumour cells in immunodeficient mice.

The subject of series [20] is MDA-MB-231 (mammary gland adenocarcinoma). The series is described as follows: In vitro cytotoxic activity (propidium iodide GI50). It counts as cell-based. As to conditions: Homo sapiens, 96 hrs.
In series [21] the test system is HUVEC (human umbilical vein endothelial cells). Described as above. As to conditions: 72 hours. The format is cell-based.

As to `CCC1OC(O)(C(C)(O)C(=O)NC2C(=O)N3NCCCC3C(=O)N(O)CC(=O)N3NCCCC3C(=O)N3CCC(C)(O)C3C(=O)N(O)C(C(C)C)C(=O)OC2C(C)C)CCC1CC(C)C` (centres unmarked) [Compound 1], the MIC in [1] was less than 0.008 µg/mL; in series [2] it was 0.5 µg/mL (≈ 0.54 µM); in series [4], 0.5 µg/mL (≈ 0.54 µM); in series [5], less than 0.008 µg/mL; in [6], less than 0.008 µg/mL; in series [7] it was 8 µg/mL (≈ 8.65 µM). For the same molecule, the MIC in [8] stood at 0.063 µg/mL (≈ 0.0681 µM); in [11] it was 0.094 µg/mL (≈ 0.102 µM); in series [12], 0.156 µg/mL; in [14], 0.031 µg/mL (≈ 0.0335 µM); in series [16], 0.031 µg/mL; in series [17] it was 1 µg/mL (≈ 1.08 µM). Also, the MIC in series [18] was found to be 0.004 µg/mL (≈ 0.00432 µM). Also, the “hemolytic activity (concentration)” value in series [3] amounted to 12.8 µM; in series [3] (2 to 64 μg/mL tested), 11.8 µg/mL. Besides, the GI50 worked out at 37 nM in series [9]; 25 nM in [10]; 66 nM in [13]; 28 nM in series [20]; 19 nM in [21]. In addition, the MTD was no less than 5 mg/kg in [15] (ip) and 2.5 mg/kg in series [15] (iv). For the same molecule, the “percentage of tumor growth inhibition (TGI)” value in series [19] (1 mg/kg i.p., median tumor volume vs vehicle, day 18) came out at 51.6%. For the same molecule, in [19] (1 mg/kg i.p., n=3 animals not at endpoint volume), the “MTV(3), median tumor volume on Day 53 in animals remaining” value is recorded as 6 mm^3. The same molecule came in with a body weight loss in series [19] (1 mg/kg i.p., on Day 8, mean body weight) of 13%. Also, the “tumor growth delay (TGD)” value in series [19] (1 mg/kg i.p., when compared with vehicle) worked out at 82%. In addition, the “body weight loss during q4d dosing” value in series [19] (period Compound 1 was given once every four days) is “no severe body weight loss”.
On to `COc1cccc2c1C(=O)c1c(O)c3c(c(O)c1C2=O)C[C@@](O)(C(C)=O)C[C@@H]3O[C@H]1C[C@H](N)[C@H](O)[C@H](C)O1` [Daunorubicin, reference compound], for which the GI50 in series [9] was 20 nM; in [10], 19 nM; in [13] it was 11 nM; in series [20], 9 nM.
For the molecule `CN[C@H](CC(C)C)C(=O)N[C@H]1C(=O)N[C@@H](CC(N)=O)C(=O)N[C@H]2C(=O)N[C@H]3C(=O)N[C@H](C(=O)N[C@H](C(=O)O)c4cc(O)cc(O)c4-c4cc3ccc4O)[C@H](O)c3ccc(c(Cl)c3)Oc3cc2cc(c3O[C@@H]2O[C@H](CO)[C@@H](O)[C@H](O)[C@H]2O[C@H]2C[C@](C)(N)[C@H](O)[C@H](C)O2)Oc2ccc(cc2Cl)[C@H]1O` [Vancomycin, reference compound], the MIC in [1] came to 0.5 µg/mL (≈ 0.345 µM); in series [5] it was 0.25 µg/mL (≈ 0.173 µM); in series [6], 0.5 µg/mL (≈ 0.345 µM); in series [8], 2 µg/mL (≈ 1.38 µM); in series [12], 0.25 µg/mL; in [16], 0.5 µg/mL. In addition, in [18], the MIC was 0.25 µg/mL (≈ 0.173 µM).

The term GI50 denotes the concentration giving 50% growth inhibition. For orientation: MTD means the largest dose that counted as tolerated.
